Assays:
Type in all cases: in vivo
[1] = system: kochia (Bassia scoparia); test: Test A1 preemergence, kochia
Summary of the method: (§1)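 Seeds were first planted into a blend of loam soil and sand and given a preemergence directed soil spray. In parallel, pots of the same soil were sown for postemergence application once plants reached 2 to 10 cm and the one- to two-leaf stage. Both used surfactant-containing non-phytotoxic solvent formulations.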

[2] = system: blackgrass (Alopecurus myosuroides); test: Test A1 preemergence, blackgrass
Summary of the method: as §1

[3] = system: corn (Zea mays); test: Test A1 preemergence, corn
Summary of the method: as §1

[4] = system: ragweed (common ragweed, Ambrosia artemisiifolia); test: Test A1 preemergence, ragweed
Summary of the method: as §1

[5] = system: Oat, Wild (wild oat, Avena fatua); test: Test A1 postemergence, Oat, Wild; conditions: for Plant response rating, Oat, Wild: Postemergence
Summary of the method: as §1

[6] = system: soybean (Glycine max); test: Test A1 preemergence, soybean
Summary of the method: as §1

[7] = system: corn (Zea mays); test: Test A1 postemergence, corn; conditions: for Plant response rating, Corn: Postemergence
Summary of the method: as §1

[8] = system: Pigweed, Palmer (palmer amaranth, palmer pigweed, Amaranthus palmeri); test: Test A1 preemergence, Pigweed, Palmer
Summary of the method: as §1

[9] = system: ragweed (common ragweed, Ambrosia artemisiifolia); test: Test A1 postemergence, ragweed; conditions: for Plant response rating, Ragweed: Postemergence
Summary of the method: as §1

[10] = system: soybean (Glycine max); test: Test A1 postemergence, soybean; conditions: for Plant response rating, Soybean: Postemergence
Summary of the method: (§2)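 Plants grown in pots of loam/sand mix; preemergence = soil-directed spray on seeded pots, postemergence = spray at 1–2 leaves, height 2–10 cm; test chemicals formulated in non-phytotoxic solvent with surfactant.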

[11] = system: ducksalad (Heteranthera limosa); test: Test B1 flooded paddy test, ducksalad; conditions: 250 g ai/ha, Flood, applied to paddy water, 2-leaf stage, visually evaluated after 10 to 14 days
Excerpt: (§3) A dash (-) response means no test result.

[12] = system: Foxtail, Giant (giant foxtail, Setaria faberi); test: Test A1 preemergence, Foxtail, Giant
Summary of the method: as §1

[13] = system: wheat (Triticum aestivum); test: Test A1 preemergence, wheat
Summary of the method: as §1

[14] = system: Ryegrass, Italian (Italian ryegrass, Lolium multiflorum); test: Test A1 postemergence, Ryegrass, Italian; conditions: for Plant response rating, Ryegrass, Italian: Postemergence
Summary of the method: as §2

[15] = system: rice (Oryza sativa); test: Test B1 flooded paddy test, rice; conditions: 250 g ai/ha, Flood, applied to paddy water, 2-leaf stage, visually evaluated after 10 to 14 days
Excerpt: as §3

[16] = system: barnyardgrass (Echinochloa crus-galli); test: Test B1 flooded paddy test, barnyardgrass; conditions: 250 g ai/ha, Flood, applied to paddy water, 2-leaf stage, visually evaluated after 10 to 14 days
Excerpt: as §3

[17] = system: blackgrass (Alopecurus myosuroides); test: Test A1 postemergence, blackgrass; conditions: 0 to 100 scale (0 no effect, 100 complete control); for Plant response rating, Blackgrass: Postemergence
Summary of the method: as §2

[18] = system: Ryegrass, Italian (Italian ryegrass, Lolium multiflorum); test: Test A1 preemergence, Ryegrass, Italian
Summary of the method: as §1

[19] = system: goosegrass (Eleusine indica); test: Test A1 postemergence, goosegrass; conditions: for Plant response rating, Goosegrass: Postemergence
Summary of the method: as §2

[20] = system: wheat (Triticum aestivum); test: Test A1 postemergence, wheat; conditions: for Plant response rating, Wheat: Postemergence
Summary of the method: as §2

[21] = system: Oat, Wild (wild oat, Avena fatua); test: Test A1 preemergence, Oat, Wild
Summary of the method: as §1

[22] = system: kochia (Bassia scoparia); test: Test A1 postemergence, kochia; conditions: for Plant response rating, Kochia: Postemergence
Summary of the method: as §2

[23] = system: Pigweed, Palmer (palmer amaranth, palmer pigweed, Amaranthus palmeri); test: Test A1 postemergence, Pigweed, Palmer; conditions: for Plant response rating, Pigweed, Palmer: Postemergence
Summary of the method: as §1

[24] = system: Foxtail, Giant (giant foxtail, Setaria faberi); test: Test A1 postemergence, Foxtail, Giant; conditions: for Plant response rating, Foxtail, Giant: Postemergence
Summary of the method: as §2

[25] = system: goosegrass (Eleusine indica); test: Test A1 preemergence, goosegrass
Summary of the method: as §1

[26] = system: horseweed (Erigeron canadensis); test: Test A1 postemergence, horseweed; conditions: for Plant response rating, Horseweed: Postemergence
Excerpt: Seeds of plant species selected from, blackgrass (Alopecurus myosuroides), corn (Zea mays), Foxtail, Giant (giant foxtail, Setaria faberi), goosegrass (Eleusine indica), kochia (Bassia scoparia), Oat, Wild (wild oat, Avena fatua), Pigweed, Palmer (palmer amaranth, palmer pigweed, Amaranthus palmeri), ragweed (common ragweed, Ambrosia artemisiifolia), Ryegrass, Italian (Italian ryegrass, Lolium multiflorum), soybean (Glycine max), and wheat (Triticum aestivum) were planted into a blend of loam soil and sand and treated preemergence with a directed soil spray using test chemicals formulated in a non-phytotoxic solvent mixture which included a surfactant. At the same time, plants selected from these crop and weed species and also galium (catchweed bedstraw, Galium aparine) and horseweed (Erigeron canadensis) were planted in pots containing the same blend of loam soil and sand and treated with postemergence applications of test chemicals formulated in the same manner. Plants ranged in height from 2 to 10 cm and were in the one- to two-leaf stage for the postemergence treatment. […] A dash (-) response means no test result.

[27] = system: galium (catchweed bedstraw, Galium aparine); test: Test A1 postemergence, galium; conditions: for Plant response rating, Galium: Postemergence
Summary of the method: as §2

[28] = 31 g ai/ha, 0 to 100 scale (0 no effect, 100 complete control)
[29] = 125 g ai/ha, 0 to 100 scale, 0 no effect, 100 complete control
[30] = 31 g ai/ha, 0 to 100 scale (0 no effect, 100 complete control), 10 days
[31] = 31 g ai/ha, postemergence, 0 to 100 scale (0 no effect, 100 complete control)
[32] = 125 g ai/ha, 0 to 100 scale (0 no effect, 100 complete control), 10 days

## CCOC1CC(c2cc(N(COC(=O)C(C)(C)C)S(=O)(=O)C(F)(F)F)c(C)cc2C)=NO1 (stereo not drawn) [Compound 339]
[1]; [28]
  Plant response rating, Kochia: 0
[1]; [29]
  Plant response rating, Kochia: 90
[2]; [28]
  Plant response rating, Blackgrass: 0
[2]; [29]
  Plant response rating, Blackgrass: 0
[3]; [28]
  Plant response rating, Corn: 0
[3]; [29]
  Plant response rating, Corn: 0
[4]; [28]
  Plant response rating, Ragweed: 20
[4]; [29]
  Plant response rating, Ragweed: 50
[5]; [30]
  Plant response rating, Oat, Wild: 0
[5]; 125 g ai/ha, 0 to 100 scale
  Plant response rating, Oat, Wild: 0
[6]; [28]
  Plant response rating, Soybean: 0
[6]; [29]
  Plant response rating, Soybean: 0
[7]; [30]
  Plant response rating, Corn: 0
[7]; 125 g ai/ha, 0 to 100 scale
  Plant response rating, Corn: 30
[8]; [28]
  Plant response rating, Pigweed, Palmer: 30
[8]; [29]
  Plant response rating, Pigweed, Palmer: 100
[9]; [30]
  Plant response rating, Ragweed: 40
[9]; 125 g ai/ha, 0 to 100 scale
  Plant response rating, Ragweed: 70
[10]; [30]
  Plant response rating, Soybean: 0
[10]; 125 g ai/ha, 0 to 100 scale
  Plant response rating, Soybean: 10
[11]
  Plant response rating, Ducksalad (0 to 100 scale, 0 is no effect, 100 is complete control): 65
[12]; [28]
  Plant response rating, Foxtail, Giant: 0
[12]; [29]
  Plant response rating, Foxtail, Giant: 20
[13]; [28]
  Plant response rating, Wheat: 0
[13]; [29]
  Plant response rating, Wheat: 0
[14]; [30]
  Plant response rating, Ryegrass, Italian: 0
[14]; 125 g ai/ha, 0 to 100 scale
  Plant response rating, Ryegrass, Italian: 50
[15]
  Plant response rating, Rice (0 to 100 scale, 0 is no effect, 100 is complete control): 20
[16]
  Plant response rating, Barnyardgrass (0 to 100 scale, 0 is no effect, 100 is complete control): 95
[17]; 31 g ai/ha, 10 days
  Plant response rating, Blackgrass: 0
[17]; 125 g ai/ha
  Plant response rating, Blackgrass: 30
[18]; [28]
  Plant response rating, Ryegrass, Italian: 30
[18]; [29]
  Plant response rating, Ryegrass, Italian: 50
[19]; [30]
  Plant response rating, Goosegrass: 0
[19]; 125 g ai/ha, 0 to 100 scale
  Plant response rating, Goosegrass: 30
[20]; [30]
  Plant response rating, Wheat: 0
[20]; 125 g ai/ha, 0 to 100 scale
  Plant response rating, Wheat: 40
[21]; [28]
  Plant response rating, Oat, Wild: 0
[21]; [29]
  Plant response rating, Oat, Wild: 0
[22]; [30]
  Plant response rating, Kochia: 30
[22]; 125 g ai/ha, 0 to 100 scale
  Plant response rating, Kochia: 70
[23]; [30]
  Plant response rating, Pigweed, Palmer: 0
[23]; 125 g ai/ha, 0 to 100 scale
  Plant response rating, Pigweed, Palmer: 20
[24]; [30]
  Plant response rating, Foxtail, Giant: 0
[24]; 125 g ai/ha, 0 to 100 scale
  Plant response rating, Foxtail, Giant: 50
[25]; [28]
  Plant response rating, Goosegrass: 0
[25]; [29]
  Plant response rating, Goosegrass: 90
[26]; [30]
  Plant response rating, Horseweed: 100
[26]; 125 g ai/ha, 0 to 100 scale
  Plant response rating, Horseweed: 100
[27]; [30]
  Plant response rating, Galium: 30
[27]; 125 g ai/ha, 0 to 100 scale
  Plant response rating, Galium: 50

## Cc1cc(C)c(N(S(=O)(=O)C(F)(F)F)S(=O)(=O)C(F)(F)F)cc1N1CCC2(CCC(C(F)(F)F)CC2)C1=O (stereo not drawn) [Compound 399]
[1]; [28]
  Plant response rating, Kochia: 0
[1]; [29]
  Plant response rating, Kochia: 50
[2]; [28]
  Plant response rating, Blackgrass: 20
[2]; [29]
  Plant response rating, Blackgrass: 60
[3]; [28]
  Plant response rating, Corn: 0
[3]; [29]
  Plant response rating, Corn: 0
[4]; [28]
  Plant response rating, Ragweed: 0
[4]; [29]
  Plant response rating, Ragweed: 60
[5]; [31]
  Oat, Wild plant response rating: 10
[5]; [32]
  Plant response rating, Oat, Wild: 40
[6]; [28]
  Plant response rating, Soybean: 30
[6]; [29]
  Plant response rating, Soybean: 40
[7]; [31]
  Corn plant response rating: 0
[7]; [32]
  Plant response rating, Corn: 10
[8]; [28]
  Plant response rating, Pigweed, Palmer: 30
[8]; [29]
  Plant response rating, Pigweed, Palmer: 60
[9]; [31]
  Ragweed plant response rating: 50
[9]; [32]
  Plant response rating, Ragweed: 90
[10]; [31]
  Soybean plant response rating: 60
[10]; [32]
  Plant response rating, Soybean: 100
[11]
  Plant response rating, Ducksalad (0 to 100 scale, 0 is no effect, 100 is complete control): 75
[12]; [28]
  Plant response rating, Foxtail, Giant: 10
[12]; [29]
  Plant response rating, Foxtail, Giant: 90
[13]; [28]
  Plant response rating, Wheat: 0
[13]; [29]
  Plant response rating, Wheat: 20
[14]; [31]
  Ryegrass, Italian plant response rating: 0
[14]; [32]
  Plant response rating, Ryegrass, Italian: 70
[15]
  Plant response rating, Rice (0 to 100 scale, 0 is no effect, 100 is complete control): 0
[16]
  Plant response rating, Barnyardgrass (0 to 100 scale, 0 is no effect, 100 is complete control): 0
[17]; 31 g ai/ha, postemergence
  Blackgrass plant response rating: 40
[17]; 125 g ai/ha, 10 days
  Plant response rating, Blackgrass: 90
[18]; [28]
  Plant response rating, Ryegrass, Italian: 40
[18]; [29]
  Plant response rating, Ryegrass, Italian: 90
[19]; [31]
  Goosegrass plant response rating: 40
[19]; [32]
  Plant response rating, Goosegrass: 90
[20]; [31]
  Wheat plant response rating: 60
[20]; [32]
  Plant response rating, Wheat: 60
[21]; [28]
  Plant response rating, Oat, Wild: 20
[21]; [29]
  Plant response rating, Oat, Wild: 40
[22]; [31]
  Kochia plant response rating: 30
[22]; [32]
  Plant response rating, Kochia: 70
[23]; [31]
  Pigweed, Palmer plant response rating: 30
[23]; [32]
  Plant response rating, Pigweed, Palmer: 70
[24]; [31]
  Foxtail, Giant plant response rating: 10
[24]; [32]
  Plant response rating, Foxtail, Giant: 60
[25]; [28]
  Plant response rating, Goosegrass: 90
[25]; [29]
  Plant response rating, Goosegrass: 90
[26]; [31]
  Horseweed plant response rating: 0
[26]; [32]
  Plant response rating, Horseweed: 50
[27]; [31]
  Galium plant response rating: 50
[27]; [32]
  Plant response rating, Galium: 90
